Like-named read-outs stand apart in the source and are kept apart here.
System: HIV-1 (NL4-3 strain)
Assay: Assay for inhibition of HIV replication (ViKinG; infected MT4-GFP cells)
Format: cell-based
Description: Assay for inhibition of HIV replication
MT4-GFP cells (250,000 cells/ml) were bulk-infected with HIV-1 (NL4-3 strain) at low multiplicity of infection (MOI) in RPMI+10% FBS for 24 hours. […] Test compounds were serial-diluted in DMSO on ECHO. The infected MT4-GFP cells were added to a 384-well poly-D-lysine coated black plate with clear bottom in which the diluted test compounds were placed. The cells were seeded at 8,000 cells per well and the final DMSO concentration was 0.4%. The infected cells (Green GFP cells) were quantified at both 24 and 48 hours post incubation using Acumen eX3. Viral reproductive ratio (R0) was determined using the number of infected cells at 48 hours divided by the number of infected cells at 24 hours. Percent viral growth inhibition was calculated by [1−(R−Rtripledrug)/(RDMSO−Rtripledrug)]*100. Compound potency IP or IC50 was determined by a 4-parameter dose response curve analysis.

[1] = Human immunodeficiency virus 1, NL43, MT4-GFP cells infected with HIV-1 NL4-3, 0% normal human serum (NHS), read-out: ViKinG IP (nM) with 0% NHS
[2] = Human immunodeficiency virus 1, NL43, MT4-GFP cells infected with HIV-1 NL4-3, 100% normal human serum (NHS), read-out: ViKinG IP (nM) with 100% NHS
[3] = MT4-GFP cells infected with HIV-1 NL4-3, 10% normal human serum (NHS), read-out: ViKinG IP (nM) with 10% NHS
[4] = Human immunodeficiency virus 1, NL43, MT4-GFP cells infected with HIV-1 NL4-3, 10% normal human serum (NHS), read-out: ViKinG IP (nM) with 10% NHS
[5] = MT4-GFP cells infected with HIV-1 NL4-3, 0% normal human serum (NHS), read-out: ViKinG IP (nM) with 0% NHS
[6] = MT4-GFP cells infected with HIV-1 NL4-3, 100% normal human serum (NHS), read-out: ViKinG IP (nM) with 100% NHS

CCN1C(=O)c2c(O)c(=O)c(C(=O)NCc3ccc(F)cc3F)cn2N(C)C12CC[C@@H]1C[C@@H]12 (some centres unmarked) [Compound 188]
IC50 [1]: 1.49 nM | IC50 [2]: 406 nM

CCN1C(=O)c2c(O)c(=O)c(-c3cn(Cc4ccc(F)cc4F)nn3)cn2CC12CCC2 [Compound 216]
IC50 [1]: 13.2 nM | IC50 [2]: 332 nM

CN1C(=O)c2c(O)c(=O)c(-c3nnc(Cc4ccc(F)cc4F)s3)cn2N(C)C12CCC(C)(CO)CC2 (centres unmarked) [Compound 85]
IC50 [1]: 12.5 nM | IC50 [2]: 150 nM | IC50 [3]: 29.5 nM

CCN1C(=O)c2c(O)c(=O)c(-c3nnc(Cc4ccc(F)cc4F)s3)cn2N(C)C1CC(C)O (centres unmarked) [Compound 41]
IC50 [1]: 3.15 nM | IC50 [4]: 73.2 nM

CN1C(=O)c2c(O)c(=O)c(-c3nnc(Cc4ccc(F)cc4F)s3)cn2N(C)C12CC[C@@H](C(=O)NC1CC1)C(C)(C)C2 (some centres unmarked) [Compound 143]
IC50 [5]: 7.48 nM | IC50 [6]: 817 nM

CN(C)CCNC(=O)C1CCC2(CC1)N(C)C(=O)c1c(O)c(=O)c(-c3nnc(Cc4ccc(F)cc4F)s3)cn1N2C (centres unmarked) [Compound 126]
IC50 [5]: 24.3 nM | IC50 [3]: 82.2 nM

CCN1C(=O)c2c(O)c(=O)c(-c3nnc(Cc4ccc(F)cc4F)s3)cn2N(C)C12CCC(C(=O)N(C)CC(F)(F)F)CC2 (centres unmarked) [Compound 103]
IC50 [5]: 6.88 nM | IC50 [6]: 143 nM

CN1C(=O)c2c(O)c(=O)c(-c3nnc(Cc4ccc(F)cc4F)s3)cn2N(C)C12CCC(C(=O)N1CCCC1)CC2 (centres unmarked) [Compound 115]
IC50 [5]: 16.4 nM | IC50 [3]: 39.5 nM

CCN1C(=O)c2c(O)c(=O)c(-c3nnc(Cc4ccc(F)cc4)s3)cn2N(C)C12CC(O)C2 (centres unmarked) [Compound 11]
IC50 [4]: 231 nM | IC50 [2]: 4200 nM

CCN1C(=O)c2c(O)c(=O)c(-c3nnc(Cc4ccc(F)cc4F)s3)cn2N(C)C1c1cccc(OC)n1 (racemic) [Compound 18]
IC50 [4]: 38.7 nM | IC50 [2]: 1190 nM

COC(=O)[C@@]12C[C@@H]1CCC21N(C)C(=O)c2c(O)c(=O)c(-c3nnc(Cc4ccc(F)cc4F)s3)cn2N1C (mixture of isomers) [Compound 199]
IC50 [1]: 5.42 nM | IC50 [4]: 13.9 nM | IC50 [2]: 202 nM

CCN1C(=O)c2c(O)c(=O)c(-c3nnc(Cc4ccc(F)cc4)s3)cn2N(C)C12CCC(C(=O)NC1CC1)CC2 (centres unmarked) [Compound 96]
IC50 [1]: 8.63 nM | IC50 [4]: 16.2 nM | IC50 [2]: 171 nM

CCN1C(=O)c2c(O)c(=O)c(-c3nnc(Cc4ccc(F)cc4F)s3)cn2N(C)C1C1(C)CC1 (racemic) [Compound 17]
IC50 [4]: 138 nM | IC50 [2]: 4070 nM

CCN1C(=O)c2c(O)c(=O)c(-c3nnc(Cc4ccc(F)cc4F)s3)cn2N(C)C12CCC(OC(C)C)CC2 (centres unmarked) [Compound 63]
IC50 [5]: 27.6 nM | IC50 [6]: 391 nM

CCN1C(=O)c2c(O)c(=O)c(-c3nnc(Cc4ccc(F)cc4)s3)cn2N(C)C1c1ccn[nH]1 (centres unmarked) [Compound 6]
IC50 [4]: 30.8 nM | IC50 [2]: 357 nM

CCN1C(=O)c2c(O)c(=O)c(-c3nnc(Cc4ccc(F)cc4F)s3)cn2N(C)C12CCC(OCCOC)CC2 (centres unmarked) [Compound 64]
IC50 [1]: 3.3 nM | IC50 [2]: 77.2 nM

CCN1C(=O)c2c(O)c(=O)c(-c3nnc(Cc4ccc(F)cc4F)s3)cn2N(C)C12CCC(c1n[nH]c(=O)o1)CC2 (centres unmarked) [Compound 34]
IC50 [4]: 23.6 nM | IC50 [2]: 180 nM

CN1C(=O)c2c(O)c(=O)c(-c3nnc(Cc4ccc(F)cc4F)s3)cn2N(C)C12CCC(C)(O)CC2 (centres unmarked) [Compound 69]
IC50 [5]: 22.6 nM | IC50 [3]: 84.7 nM

CN1C(=O)c2c(O)c(=O)c(C(=O)NCc3ccc(F)cc3F)cn2CC12CCC2 [Compound 178]
IC50 [1]: 2.73 nM | IC50 [2]: 233 nM

CCCOC1CCC2(CC1)N(CC)C(=O)c1c(O)c(=O)c(C(=O)NCc3ccc(F)cc3F)cn1N2C (centres unmarked) [Compound 193]
IC50 [5]: 8.24 nM | IC50 [6]: 84.8 nM

CCOC(=O)C1CC2(CC1(C)C)N(CC)C(=O)c1c(O)c(=O)c(-c3nnc(Cc4ccc(F)cc4F)s3)cn1N2C (centres unmarked) [Compound 35]
IC50 [4]: 100 nM

CN1C(=O)c2c(O)c(=O)c(-c3nnc(Cc4ccc(F)cc4F)s3)cn2N(C)C12CCC(C(=O)NCc1cn(C)cn1)CC2 (centres unmarked) [Compound 131]
IC50 [5]: 459 nM | IC50 [3]: 642 nM

CN1C(=O)c2c(O)c(=O)c(-c3nnc(Cc4ccc(F)cc4F)s3)cn2N(C)C12CCC(C(=O)NCC1CCS(=O)(=O)C1)CC2 (centres unmarked) [Compound 138]
IC50 [5]: 445 nM | IC50 [3]: 1180 nM

CCN1C(=O)c2c(O)c(=O)c(-c3nnc(Cc4ccc(F)cc4F)s3)cn2N(C)C12CC[C@H](C(=O)OC)[C@H](C)C2 (some centres unmarked) [Compound 30]
IC50 [3]: 13.1 nM

CCN1C(=O)c2c(O)c(=O)c(-c3nnc(Cc4ccc(F)cc4F)s3)cn2N(C)C12CCC(C)(OC)CC2 (centres unmarked) [Compound 59]
IC50 [1]: 8.66 nM | IC50 [2]: 124 nM

COCCN1C(=O)c2c(O)c(=O)c(C(=O)NCc3ccc(F)cc3F)cn2CC12CCC2 [Compound 177]
IC50 [1]: 5.03 nM | IC50 [2]: 4790 nM

COCCN1C(=O)c2c(O)c(=O)c(-c3cn(Cc4ccc(F)cc4F)nn3)cn2CC12CCC2 [Compound 214]
IC50 [1]: 24.4 nM | IC50 [2]: 205 nM

CCN1C(=O)c2c(O)c(=O)c(-c3nnc(Cc4ccc(F)cc4F)s3)cn2N(C)C12CCC(C(F)(F)F)CC2 (centres unmarked) [Compound 50]
IC50 [5]: 25.6 nM | IC50 [6]: 5380 nM

CCN1C(=O)c2c(O)c(=O)c(-c3nnc(Cc4ccc(F)cc4F)s3)cn2N(C)C12CCCCC(=O)C2 (racemic) [Compound 44]
IC50 [1]: 4.36 nM | IC50 [2]: 240 nM

COC(=O)[C@@]12C[C@@H]1CCC21NC(=O)c2c(O)c(=O)c(-c3nnc(Cc4ccc(F)cc4F)s3)cn2N1C (mixture of isomers) [Compound 204]
IC50 [1]: 2.81 nM | IC50 [4]: 9.04 nM | IC50 [2]: 146 nM

CN1C(=O)c2c(O)c(=O)c(C(=O)NCc3ccc(F)cc3F)cn2CC12CC2 [Compound 174]
IC50 [1]: 2.87 nM | IC50 [2]: 125 nM

CN1C(=O)c2c(O)c(=O)c(-c3nnc(Cc4ccc(F)cc4F)s3)cn2N(C)C12CCC(C(=O)NC1(C)CC1)CC2 (centres unmarked) [Compound 114]
IC50 [5]: 4.69 nM | IC50 [3]: 9.07 nM

CN1C(=O)c2c(O)c(=O)c(-c3nnc(Cc4ccc(F)cc4F)s3)cn2N(C)C12CCC(C(=O)NCC1(O)CC1)CC2 (centres unmarked) [Compound 124]
IC50 [5]: 11.3 nM | IC50 [3]: 22.6 nM

CCN1C(=O)c2c(O)c(=O)c(-c3nnc(Cc4ccc(F)cc4F)s3)cn2N(C)C1c1ccc(F)c(OC)c1 (racemic) [Compound 48]
IC50 [1]: 19.6 nM | IC50 [2]: 416 nM

CN1C(=O)c2c(O)c(=O)c(-c3nnc(Cc4ccc(F)cc4F)s3)cn2N(C)C12CCC(C(=O)N1CC(F)(F)C1)CC2 (centres unmarked) [Compound 119]
IC50 [1]: 5.26 nM | IC50 [3]: 35.6 nM | IC50 [6]: 189 nM

COC1CCC2(CC1)Cn1cc(-c3nnc(Cc4ccc(F)cc4F)s3)c(=O)c(O)c1C(=O)N2C (centres unmarked) [Compound 213]
IC50 [5]: 5.89 nM | IC50 [6]: 35.8 nM

CCN1C(=O)c2c(O)c(=O)c(-c3nnc(Cc4ccc(F)cc4F)s3)cn2N(C)C12CCC(C(F)(F)F)CC2 (centres unmarked) [Compound 49]
IC50 [1]: 19.8 nM | IC50 [6]: 406 nM

CCN1C(=O)c2c(O)c(=O)c(-c3nnc(Cc4ccc(F)cc4F)s3)cn2N(C)C12CCC1(CCC(=O)N1)CC2 (centres unmarked) [Compound 23]
IC50 [3]: 466 nM

CCN1C(=O)c2c(O)c(=O)c(-c3nnc(Cc4ccc(F)cc4)s3)cn2N(CC(=O)N(C)C)C1(C)C [Compound 171]
IC50 [4]: 21 nM | IC50 [2]: 673 nM

CCN1C(=O)c2c(O)c(=O)c(-c3nnc(Cc4ccc(F)cc4F)s3)cn2N(C)C12CCC(O)CC2 (centres unmarked) [Compound 52]
IC50 [5]: 2.33 nM | IC50 [6]: 130 nM

CN1C2C(O)CCCN2C(=O)c2c(O)c(=O)c(-c3nnc(Cc4ccc(F)cc4F)s3)cn21 (centres unmarked) [Compound 164]
IC50 [5]: 3.48 nM | IC50 [6]: 82.2 nM

CCOP(=O)(OCC)C1CCC2(C1)N(CC)C(=O)c1c(O)c(=O)c(-c3nnc(Cc4ccc(F)cc4F)s3)cn1N2C (centres unmarked) [Compound 37]
IC50 [2]: 186 nM | IC50 [3]: 18.2 nM

CN1C(=O)c2c(O)c(=O)c(-c3nnc(Cc4ccc(F)cc4)s3)cn2N(C)C12CCC(O)CC2 (centres unmarked) [Compound 14]
IC50 [5]: 5.37 nM | IC50 [3]: 18.8 nM | IC50 [6]: 198 nM

CN(C(=O)C1CCC2(CC1)N(C)C(=O)c1c(O)c(=O)c(-c3nnc(Cc4ccc(F)cc4F)s3)cn1N2C)C1CC1 (centres unmarked) [Compound 110]
IC50 [5]: 5.82 nM | IC50 [3]: 10.7 nM

CN1C(=O)c2c(O)c(=O)c(-c3nnc(Cc4ccc(F)cc4F)s3)cn2N(C)C12CC[C@@H]1C[C@@]12CO (some centres unmarked) [Compound 195]
IC50 [1]: 2.02 nM | IC50 [6]: 190 nM

CCN1C(=O)c2c(O)c(=O)c(C(=O)NCc3ccc(F)cc3F)cn2CC12CC2 [Compound 179]
IC50 [1]: 2.86 nM | IC50 [2]: 1360 nM

CCN1C(=O)c2c(O)c(=O)c(-c3nnc(Cc4ccc(F)cc4F)s3)cn2N(C)C12CC[C@H](C(=O)OC)[C@H](C)C2 (some centres unmarked) [Compound 31]
IC50 [3]: 32.2 nM

CN1C(=O)c2c(O)c(=O)c(-c3nnc(Cc4ccc(F)cc4F)s3)cn2N(C)C12CCC(C(=O)NCc1cnoc1)CC2 (centres unmarked) [Compound 128]
IC50 [5]: 81.8 nM | IC50 [3]: 101 nM

C[C@H]1CC2(CC[C@@H]1C(=O)N(C)C)N(C)C(=O)c1c(O)c(=O)c(-c3nnc(Cc4ccc(F)cc4)s3)cn1N2C (some centres unmarked) [Compound 149]
IC50 [4]: 43.7 nM

CCN1C(=O)c2c(O)c(=O)c(-c3nnc(Cc4ccc(F)cc4F)s3)cn2N(C)C12CCC(Oc1ccccc1)CC2 (centres unmarked) [Compound 53]
IC50 [2]: 1030 nM | IC50 [5]: 15.7 nM
